Where “and” joins values, the source holds several entries; their conditions need not be identical. Equal values may be shown once. Read-outs that look alike come from different tables or passages of the source.
Legend:
Jeko-1 = assay: Cell growth inhibition (MTT) and median-drug effect analysis, Jeko-1; assay type: cell-based; details: Homo sapiens, read-out: IC50 (50% growth inhibition); Jeko-1, 72 h exposure
Procedure: Cells were plated in 96-wells flat bottom plates, at 3,000 or 6,000 cells per well in culture medium (75 μL/well) or in 24-wells plates (60,000 cells/well) for the counting assays for which a Coulter Counter was used. Cells were treated immediately with a drug dilution series in cell culture medium (75 μL/well). […] After incubation for 3 h in the 5% CO2 incubator with 100% humidity at 37°C, 150 μL acidified 2-propanol was added to the plates to dissolve the formazan crystals. The yellow-colored MTT stock solution is taken up and reduced to a purple formazan in living cells, which directly correlates to the amount of viable cells. As final step, the plates were measured at 540 (or 492) nm by the SPECTRAfluor spectrophotometer. […] Drug interaction in combination experiments was evaluated using the median-drug effect analysis using CalcuSyn software ([Bijnsdorp et al., 2011]). […] The means of the separate experiments were subsequently averaged so that a mean ± Standard Error of the Mean (SEM) was calculated from three or more separate experiments. […] Drug combinations were designed based on the standard CalcuSyn approach in which a series of drug concentrations were combined in a fixed molar ratio, based on the IC50 of each drug. […]

SUDHL-4 cells [1] = assay: Cell growth inhibition (cell counting) and median-drug effect analysis, SUDHL-4; assay type: cell-based; details: Homo sapiens, SU-DHL-4, read-out: IC50 (50% growth inhibition); SUDHL 4, 72 h exposure
SUDHL-5 cells = assay: Cell growth inhibition (MTT) and median-drug effect analysis, SUDHL-5; assay type: cell-based
Procedure: (§1) Cells were treated immediately with a drug dilution series in cell culture medium (75 μL/well). After an incubation period of approximately 72 h, growth in the 96-wells plates was assessed by adding 15 μL MTT solution (stock solution 5 mg/ml in PBS, final concentration 0.5 mg/ml in culture medium) to each well. After incubation for 3 h in the 5% CO2 incubator with 100% humidity at 37°C, 150 μL acidified 2-propanol was added to the plates to dissolve the formazan crystals. The yellow-colored MTT stock solution is taken up and reduced to a purple formazan in living cells, which directly correlates to the amount of viable cells. As final step, the plates were measured at 540 (or 492) nm by the SPECTRAfluor spectrophotometer.
Drug interaction in combination experiments was evaluated using the median-drug effect analysis using CalcuSyn software ([Bijnsdorp et al., 2011]). In order to evaluate combination indexes [CI] from different experiments, the CI values at Fraction Affected (FA) values >0.5 (preferably around 0.5, 0.75, and 0.9) were averaged for each specific experiment. The means of the separate experiments were subsequently averaged so that a mean ± Standard Error of the Mean (SEM) was calculated from three or more separate experiments. […] Drug combinations were designed based on the standard CalcuSyn approach in which a series of drug concentrations were combined in a fixed molar ratio, based on the IC50 of each drug. A variation of this approach was a sequential scheduling in which cells were exposed for 72 h to BLS, while in the combination PLX was added after 24 h and cells were exposed from 24 to 72 h. In the non-fixed ratio approach one drug was used at the IC25 (concentration that results in 25% growth inhibition) and the other drug was added in a concentration range.

HT cells [2] = assay: Cell growth inhibition (cell counting) and median-drug effect analysis, HT; assay type: cell-based; details: for IC50: HT
PCFT = molecular target: T1, PCFT (Homo sapiens, UniProt Q96NT5); assay: PCFT competition assay: inhibition of [3H]-l-LV influx in CHO-cells lacking RFC and transfected with PCFT; assay type: cell-based; details: for IC50: 2.5 μM [3H]-l-LV, pH 5.5, 3 min, 37°C, read-out: PCFT: concentration of unlabeled drug necessary to inhibit [3H]-LV influx
T1 construct: expressed in transfected cells; host or cells: CHO cells lacking RFC
T1 sequence (Q96NT5 1-459): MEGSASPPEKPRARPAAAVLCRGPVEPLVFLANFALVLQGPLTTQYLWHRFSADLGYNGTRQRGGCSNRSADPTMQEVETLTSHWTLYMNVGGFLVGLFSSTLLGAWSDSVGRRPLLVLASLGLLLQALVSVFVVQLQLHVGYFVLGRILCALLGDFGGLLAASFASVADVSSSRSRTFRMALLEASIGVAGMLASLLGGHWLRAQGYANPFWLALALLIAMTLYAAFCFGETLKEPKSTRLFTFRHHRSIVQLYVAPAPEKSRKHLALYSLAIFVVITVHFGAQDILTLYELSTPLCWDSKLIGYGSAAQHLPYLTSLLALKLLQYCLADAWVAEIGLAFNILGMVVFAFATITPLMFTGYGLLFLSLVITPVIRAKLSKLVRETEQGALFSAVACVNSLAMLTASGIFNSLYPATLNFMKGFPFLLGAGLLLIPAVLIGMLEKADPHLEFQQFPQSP
Procedure: The affinity for PCFT of PLX was assessed in competition with 2.5 μM ^3H-l-LV at pH 5.5 in CHO-cells lacking RFC and transfected with PCFT. […] […] Also for PCFT relative affinities were expressed as the concentration of unlabeled drug necessary to inhibit [^3H]-LV influx.

HT cells [3] = assay: FACS propidium iodide staining: cell cycle distribution and cell death, HT; assay type: cell-based; details: drugs at their IC50, untreated 3.5%
Procedure: (§2) Propidium iodide staining (DNA staining) was used to determine cell cycle distribution and the extent of cell death. Cells (120,000 per well in a 24-wells plate) were exposed to PLX or BLS or the combination for 24, 48, or 72 h. Cells were harvested, suspended in 1.0 ml phosphate buffered saline/1% Bovine serum albumin and fixed with 70% ethanol. After centrifugation the pellet was resuspended in hypotonic propidium iodide (0.1 mg/ml), Triton-X-100 (0.1%), sodium citrate (1 mg/ml) and RNAse A (0.5 mg/ml) (final concentrations in saline) and stored in dark on ice for 30 min ([De Wilt et al., 2012]). DNA content of the cells to determine cell cycle effects and cell kill was analyzed by a FACScalibur (Becton Dickinson Immunocytometry Systems, San Jose, CA, United States) with an acquisition of 10,000 events as described previously ([De Wilt et al., 2012]).

Karpas-299 = assay: Cell growth inhibition (MTT) and median-drug effect analysis, Karpas-299; assay type: cell-based; details: Homo sapiens, read-out: IC50 (50% growth inhibition); Karpas-299, 72 h exposure
Procedure: as §1
(§3) Drug interaction in combination experiments was evaluated using the median-drug effect analysis using CalcuSyn software ([Bijnsdorp et al., 2011]). In order to evaluate combination indexes [CI] from different experiments, the CI values at Fraction Affected (FA) values >0.5 (preferably around 0.5, 0.75, and 0.9) were averaged for each specific experiment. The means of the separate experiments were subsequently averaged so that a mean ± Standard Error of the Mean (SEM) was calculated from three or more separate experiments. […]

Hut-29 = assay: Cell growth inhibition (MTT) and median-drug effect analysis, Hut-29; assay type: cell-based; details: read-out: IC50 (50% growth inhibition); Hut-29, 72 h exposure
Procedure: as §1, §3

RFC = molecular target: T2, RFC (Homo sapiens, UniProt P41440); assay: RFC competition assay: inhibition of [3H]-l-LV uptake in CCRF-CEM/7A cells (RFC+++); assay type: cell-based; details: for IC50: 5 μM [3H]-l-LV, 2 min, 37°C, CCRF-CEM/7A cells, read-out: RFC: concentration of unlabeled drug necessary to inhibit [3H]-l-LV uptake by 50%
T2 construct: CEM-7A cells overexpress the RFC 30-fold over wild-type CCRF-CEM cells; endogenous in cells; host or cells: CCRF-CEM/7A (CEM-7A) cells
T2 sequence (P41440 1-591): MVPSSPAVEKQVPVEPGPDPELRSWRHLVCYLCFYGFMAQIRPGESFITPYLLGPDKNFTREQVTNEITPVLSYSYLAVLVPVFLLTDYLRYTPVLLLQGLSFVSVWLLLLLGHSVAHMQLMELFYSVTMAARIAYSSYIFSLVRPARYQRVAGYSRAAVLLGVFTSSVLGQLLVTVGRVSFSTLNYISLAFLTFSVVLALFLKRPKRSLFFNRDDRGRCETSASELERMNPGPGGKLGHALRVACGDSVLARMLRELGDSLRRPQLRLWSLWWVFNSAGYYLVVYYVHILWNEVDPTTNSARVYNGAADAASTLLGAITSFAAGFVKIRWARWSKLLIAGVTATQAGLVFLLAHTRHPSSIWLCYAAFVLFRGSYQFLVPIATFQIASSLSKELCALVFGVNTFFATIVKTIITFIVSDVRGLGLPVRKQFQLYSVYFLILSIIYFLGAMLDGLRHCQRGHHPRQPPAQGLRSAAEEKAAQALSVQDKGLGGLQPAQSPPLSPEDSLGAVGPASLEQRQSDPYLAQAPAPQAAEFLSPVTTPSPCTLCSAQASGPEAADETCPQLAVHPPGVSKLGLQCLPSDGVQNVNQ
Procedure: For FRα and FRβ, we used an intact cell binding assay for competitive binding with KB cells and CHO-FRβ cells, respectively. […] For RFC we used a competition assay with 5 μM [^3H]-l-LV in CCRF-CEM/7A cells (RFC+++) for 2 min at 37°C.
Transport was determined by evaluation of the uptake of 5 μM [^3H]-l-LV for 2 min in CCRF-CEM-7A cells, which overexpress RFC. […] Values are from one representative experiment in triplicate; performed three times. Error bars represent SEM, when not visible, they are within the size of the marker.

SUDHL-4 cells [4] = assay: FACS propidium iodide staining: cell death, SUDHL-4; assay type: cell-based; details: drugs at their IC50, untreated 5.0%
Procedure: as §2

FRβ = molecular target: T3, FRβ (Homo sapiens, UniProt P14207); assay: Intact cell binding assay, displacement of radio-active folic acid from CHO-FRβ cells; details: folic acid set at 1
T3 construct: expressed in transfected cells; host or cells: CHO-FRβ cells
Procedure: (§4) In order to determine to which extent PLX was a substrate for either the folate receptors, RFC or PCFT we used competition experiments in cell lines overexpressing either transporter ([Westerhof et al., 1995a], [b]; [Jansen et al., 1997]; [Ifergan et al., 2008]; [Lasry et al., 2008]; [van der Heijden et al., 2009]). For FRα and FRβ, we used an intact cell binding assay for competitive binding with KB cells and CHO-FRβ cells, respectively. […] For RFC we used a competition assay with 5 μM [^3H]-l-LV in CCRF-CEM/7A cells (RFC+++) for 2 min at 37°C. CEM-7A cells overexpress the RFC 30-fold over wild-type CCRF-CEM cells ([Jansen et al., 1990], [1997]).

cell proliferation = test system: cell proliferation; parameters: method as in Tonner et al., 2006; details: ref Tonner et al., 2006; cited from earlier work
lymphoma cell lines = assay: Cell growth inhibition and median-drug effect analysis, panel of lymphoma cell lines; assay type: cell-based; details: 72 hr exposure, panel of cell lines; read-out: IC50, range over the cell lines
Procedure: Cells were plated in 96-wells flat bottom plates, at 3,000 or 6,000 cells per well in culture medium (75 μL/well) or in 24-wells plates (60,000 cells/well) for the counting assays for which a Coulter Counter was used. Cells were treated immediately with a drug dilution series in cell culture medium (75 μL/well). […] After incubation for 3 h in the 5% CO2 incubator with 100% humidity at 37°C, 150 μL acidified 2-propanol was added to the plates to dissolve the formazan crystals. The yellow-colored MTT stock solution is taken up and reduced to a purple formazan in living cells, which directly correlates to the amount of viable cells. As final step, the plates were measured at 540 (or 492) nm by the SPECTRAfluor spectrophotometer. […] Drug interaction in combination experiments was evaluated using the median-drug effect analysis using CalcuSyn software ([Bijnsdorp et al., 2011]). […] The means of the separate experiments were subsequently averaged so that a mean ± Standard Error of the Mean (SEM) was calculated from three or more separate experiments. […] Drug combinations were designed based on the standard CalcuSyn approach in which a series of drug concentrations were combined in a fixed molar ratio, based on the IC50 of each drug. A variation of this approach was a sequential scheduling in which cells were exposed for 72 h to BLS, while in the combination PLX was added after 24 h and cells were exposed from 24 to 72 h.

FRα = molecular target: T4, FRα (Homo sapiens, UniProt P15328); assay: Intact cell binding assay, displacement of radio-active folic acid from KB cells; details: inverse ratio of compound to displace 50% of radio-active folic acid, folic acid set at 1
T4 construct: endogenous in cells; host or cells: KB cells
Procedure: as §4

CCRF-CEM = assay: Cell growth inhibition (MTT), CCRF-CEM; assay type: cell-based, human
Procedure: as §1

T4 sequence (P15328 25-257): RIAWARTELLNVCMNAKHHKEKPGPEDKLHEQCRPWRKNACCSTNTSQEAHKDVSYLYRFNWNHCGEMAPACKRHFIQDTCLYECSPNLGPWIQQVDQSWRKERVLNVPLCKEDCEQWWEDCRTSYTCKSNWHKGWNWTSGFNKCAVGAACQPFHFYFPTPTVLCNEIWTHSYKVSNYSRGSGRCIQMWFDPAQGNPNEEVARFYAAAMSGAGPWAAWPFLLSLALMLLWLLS
T3 sequence (P14207 17-255, species assumed): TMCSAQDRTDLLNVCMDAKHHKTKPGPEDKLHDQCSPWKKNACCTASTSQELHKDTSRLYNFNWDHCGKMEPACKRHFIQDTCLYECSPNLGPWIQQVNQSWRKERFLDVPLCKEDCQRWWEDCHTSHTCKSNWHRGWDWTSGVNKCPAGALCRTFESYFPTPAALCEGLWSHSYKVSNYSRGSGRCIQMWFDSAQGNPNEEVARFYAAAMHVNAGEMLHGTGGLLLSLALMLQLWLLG

C#CCC(Cc1cnc2nc(N)nc(N)c2n1)c1ccc(C(=O)N[C@@H](CCC(=O)O)C(=O)O)cc1 (stereo partly shown) [PLX, Pralatrexate]
IC50 (Jeko-1): 18.7 ± 4.2 nM
IC50 (SUDHL-4 cells [1]): 5.6 ± 0.4 nM
IC50 (SUDHL-5 cells; Homo sapiens, SU-DHL-5, read-out: IC50 (50% growth inhibition), SUDHL 5, 72 h exposure): 5.5 ± 0.9 nM
IC25 (concentration that results in 25% growth inhibition) (SUDHL-5 cells; SUDHL-5 cells, 72 h): ~4 nM
IC25 (concentration that results in 25% growth inhibition) (HT cells [2]; HT cells, 72 h): ~5 nM
IC50 (HT cells [2]; Homo sapiens, 72 h, read-out: IC50 (50% growth inhibition), HT, 72 h exposure): ~10 nM
IC50 (HT cells [2]; read-out: IC50 (50% growth inhibition), 72 h exposure): 7.4 ± 0.5 nM
IC50 (PCFT): 15000 nM and 14800 nM
substrate for PCFT at physiological pH (PCFT; pH 7.4): very poor substrate
accumulation of cells in the sub-G1 phase (cell death) (HT cells [3]): 13%
IC50 (Karpas-299): 24.7 ± 5.3 nM
IC50 (Hut-29): 2.8 ± 0.5 nM
RFC substrate affinity, fold better compared to methotrexate (RFC): 6 fold
RFC substrate affinity, fold better than levoleucovorin (l-LV) (RFC): 2 fold
IC50 (RFC): 2800 ± 100 nM
accumulation of cells in the sub-G1 phase (cell death) (SUDHL-4 cells [4]): 22.1%
FRβ relative affinity (FRβ): < 0.001
potency in suppressing cell proliferation relative to methotrexate (cell proliferation): one log more potent
IC50 (lymphoma cell lines): 2.8 to 20 nM
FR-α relative affinity (FRα): 0.0035 and 0.0035 ± 0.0005
reversal of cytotoxicity by l-LV (CCRF-CEM; 5 μM l-LV, CEM cells): 2965 fold
IC50 (CCRF-CEM; Homo sapiens, read-out: IC50 (50% growth inhibition), CCRF-CEM, 72 h exposure): 2.6 ± 0.4 nM

Nc1nc(=O)c2c([nH]1)NC[C@H](CNc1ccc(C(=O)N[C@@H](CCC(=O)O)C(=O)O)cc1)N2C=O [l-LV, l-Leucovorin]
IC50 (PCFT): 4000 ± 100 nM
IC50 (RFC): 5500 ± 700 nM
FR-α relative affinity (FRα): 0.073 ± 0.0010

From publication PMC7581941, “Schedule-Dependent Synergy Between the Histone Deacetylase Inhibitor Belinostat and the Dihydrofolate Reductase Inhibitor Pralatrexate in T-and B-cell Lymphoma Cells in vitro” (Frontiers in Cell and Developmental Biology, 2020)
